In PubChem BioAssay AID2060901 (Molecular Pharmacology Branch, DTP, NCI, 2025):
One block for each molecule: values may come before it.

Tested on: 422866-222-R5-J1-PDC complex spheroids viability
Test: Anticancer human tumor 422866-222-R5-J1-PDC patient-derived pancreatic adenocarcinoma cell line growth inhibition [RAS]
Conditions: for IC50: curve of first compound; for viability, T/C: stronger effect = lower value
Method in brief: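 Agents were tested in combination matrices in half-log decrements from a top concentration at or near clinical Cmax (10 microM if undetermined). Targets were multi-cell spheroids of tumour lines plus HUVEC and MSC stromal cells.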

[1] = second compound 0.000949 µM, first compound 0.0316 µM
[2] = second compound 0.000949 µM, first compound 0.1 µM
[3] = second compound 0.000949 µM, first compound 0.316 µM
[4] = second compound 0.000949 µM, first compound 1 µM
[5] = second compound 0.000949 µM, first compound 3.16 µM
[6] = second compound 0.000949 µM, first compound 10 µM
[7] = second compound 0.003 µM, first compound 0.0316 µM
[8] = second compound 0.003 µM, first compound 0.1 µM
[9] = second compound 0.003 µM, first compound 0.316 µM
[10] = second compound 0.003 µM, first compound 1 µM
[11] = second compound 0.003 µM, first compound 3.16 µM
[12] = second compound 0.003 µM, first compound 10 µM
[13] = second compound 0.00949 µM, first compound 0.0316 µM
[14] = second compound 0.00949 µM, first compound 0.1 µM
[15] = second compound 0.00949 µM, first compound 0.316 µM
[16] = second compound 0.00949 µM, first compound 1 µM
[17] = second compound 0.00949 µM, first compound 3.16 µM
[18] = second compound 0.00949 µM, first compound 10 µM
[19] = second compound 0.03 µM, first compound 0.0316 µM
[20] = second compound 0.03 µM, first compound 0.1 µM
[21] = second compound 0.03 µM, first compound 0.316 µM
[22] = second compound 0.03 µM, first compound 1 µM
[23] = second compound 0.03 µM, first compound 3.16 µM
[24] = second compound 0.03 µM, first compound 10 µM
[25] = second compound 0.0949 µM, first compound 0.0316 µM
[26] = second compound 0.0949 µM, first compound 0.1 µM
[27] = second compound 0.0949 µM, first compound 0.316 µM
[28] = second compound 0.0949 µM, first compound 1 µM
[29] = second compound 0.0949 µM, first compound 3.16 µM
[30] = second compound 0.0949 µM, first compound 10 µM
[31] = second compound 0.3 µM, first compound 0.0316 µM
[32] = second compound 0.3 µM, first compound 0.1 µM
[33] = second compound 0.3 µM, first compound 0.316 µM
[34] = second compound 0.3 µM, first compound 1 µM
[35] = second compound 0.3 µM, first compound 3.16 µM
[36] = second compound 0.3 µM, first compound 10 µM
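Note: spheroids exposed to compounds for 7 days.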
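Throughout, for viability, T/C: 100% = DMSO vehicle control viability.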

IC50 (second compound 0.000949 µM): < 0.0316 µM
IC50 (second compound 0.003 µM): < 0.0316 µM
IC50 (second compound 0.00949 µM): < 0.0316 µM
IC50 (second compound 0.03 µM): < 0.0316 µM
IC50 (second compound 0.0949 µM): < 0.0316 µM
IC50 (second compound 0.3 µM): < 0.0316 µM
SMILES: CC(=O)OC12COC1CC(O)C1(C)C(=O)C(O)C3=C(C)C(OC(=O)C(O)C(NC(=O)OC(C)(C)C)c4ccccc4)CC(O)(C(OC(=O)c4ccccc4)C21)C3(C)C (stereo unspecified) + CCn1c(-c2cccnc2C(C)OC)c2c3cc(ccc31)N1CCOC(CC(NC(=O)C(C(C)C)N(C)C(=O)C3(F)CCN(C(=O)C#CC(C)(C)N(C)C)CC3)C(=O)N3CCCC(N3)C(=O)OCC(C)(C)C2)C1
viability, T/C [1]: 23.9%
viability, T/C [2]: 23.8%
viability, T/C [3]: 25.8%
viability, T/C [4]: 27.3%
viability, T/C [5]: 26.3%
viability, T/C [6]: 25.9%
viability, T/C [7]: 19.9%
viability, T/C [8]: 19.6%
viability, T/C [9]: 19%
viability, T/C [10]: 21.1%
viability, T/C [11]: 19.8%
viability, T/C [12]: 21.1%
viability, T/C [13]: 19.9%
viability, T/C [14]: 19%
viability, T/C [15]: 20.1%
viability, T/C [16]: 21.5%
viability, T/C [17]: 22.5%
viability, T/C [18]: 19.6%
viability, T/C [19]: 15.4%
viability, T/C [20]: 19.2%
viability, T/C [21]: 21.6%
viability, T/C [22]: 19%
viability, T/C [23]: 21.3%
viability, T/C [24]: 23.9%
viability, T/C [25]: 14.5%
viability, T/C [26]: 16.5%
viability, T/C [27]: 15.3%
viability, T/C [28]: 16.4%
viability, T/C [29]: 21.6%
viability, T/C [30]: 20.9%
viability, T/C [31]: 16.2%
viability, T/C [32]: 17.9%
viability, T/C [33]: 17.6%
viability, T/C [34]: 16.8%
viability, T/C [35]: 18.4%
viability, T/C [36]: 19.9%

IC50 (second compound 0.000949 µM): < 0.0316 µM
IC50 (second compound 0.003 µM): < 0.0316 µM
IC50 (second compound 0.00949 µM): < 0.0316 µM
IC50 (second compound 0.03 µM): < 0.0316 µM
IC50 (second compound 0.0949 µM): < 0.0316 µM
IC50 (second compound 0.3 µM): < 0.0316 µM
SMILES: NC1c2ccccc2OC12CCN(c1cnc3c(N4CCCc5ncccc54)n[nH]c3n1)CC2 (stereo unspecified) + CCn1c(-c2cccnc2C(C)OC)c2c3cc(ccc31)N1CCOC(CC(NC(=O)C(C(C)C)N(C)C(=O)C3(F)CCN(C(=O)C#CC(C)(C)N(C)C)CC3)C(=O)N3CCCC(N3)C(=O)OCC(C)(C)C2)C1
viability, T/C [1]: 20.1%
viability, T/C [2]: 18.2%
viability, T/C [3]: 14.9%
viability, T/C [4]: 16.1%
viability, T/C [5]: 18.1%
viability, T/C [6]: 15.7%
viability, T/C [7]: 16%
viability, T/C [8]: 12.6%
viability, T/C [9]: 14.4%
viability, T/C [10]: 14.4%
viability, T/C [11]: 13.5%
viability, T/C [12]: 15.1%
viability, T/C [13]: 17.7%
viability, T/C [14]: 14.1%
viability, T/C [15]: 13.7%
viability, T/C [16]: 14.3%
viability, T/C [17]: 13.8%
viability, T/C [18]: 15.8%
viability, T/C [19]: 15.8%
viability, T/C [20]: 12.8%
viability, T/C [21]: 14.3%
viability, T/C [22]: 12.9%
viability, T/C [23]: 12.9%
viability, T/C [24]: 13.6%
viability, T/C [25]: 12.8%
viability, T/C [26]: 13.3%
viability, T/C [27]: 13.6%
viability, T/C [28]: 13%
viability, T/C [29]: 12.6%
viability, T/C [30]: 13.4%
viability, T/C [31]: 11.3%
viability, T/C [32]: 13.4%
viability, T/C [33]: 13.9%
viability, T/C [34]: 11.3%
viability, T/C [35]: 14.2%
viability, T/C [36]: 17.4%

IC50 (second compound 0.000949 µM): < 0.00316 µM
IC50 (second compound 0.003 µM): < 0.00316 µM
IC50 (second compound 0.00949 µM): < 0.00316 µM
IC50 (second compound 0.03 µM): < 0.00316 µM
IC50 (second compound 0.0949 µM): < 0.00316 µM
IC50 (second compound 0.3 µM): < 0.00316 µM
SMILES: Nc1ccn(C2OC(CO)C(O)C2(F)F)c(=O)n1 (stereo unspecified) + CCn1c(-c2cccnc2C(C)OC)c2c3cc(ccc31)N1CCOC(CC(NC(=O)C(C(C)C)N(C)C(=O)C3(F)CCN(C(=O)C#CC(C)(C)N(C)C)CC3)C(=O)N3CCCC(N3)C(=O)OCC(C)(C)C2)C1
viability, T/C (second compound 0.000949 µM, first compound 0.00316 µM): 25.9%
viability, T/C (second compound 0.000949 µM, first compound 0.01 µM): 23.6%
viability, T/C [1]: 25.8%
viability, T/C [2]: 23.4%
viability, T/C [3]: 23.1%
viability, T/C [4]: 18.5%
viability, T/C (second compound 0.003 µM, first compound 0.00316 µM): 22.8%
viability, T/C (second compound 0.003 µM, first compound 0.01 µM): 20.6%
viability, T/C [7]: 20.3%
viability, T/C [8]: 17.5%
viability, T/C [9]: 16.3%
viability, T/C [10]: 13.8%
viability, T/C (second compound 0.00949 µM, first compound 0.00316 µM): 22.7%
viability, T/C (second compound 0.00949 µM, first compound 0.01 µM): 20.1%
viability, T/C [13]: 17.9%
viability, T/C [14]: 15.7%
viability, T/C [15]: 15.6%
viability, T/C [16]: 15.2%
viability, T/C (second compound 0.03 µM, first compound 0.00316 µM): 18.8%
viability, T/C (second compound 0.03 µM, first compound 0.01 µM): 22.6%
viability, T/C [19]: 17.1%
viability, T/C [20]: 13.3%
viability, T/C [21]: 14.6%
viability, T/C [22]: 16.9%
viability, T/C (second compound 0.0949 µM, first compound 0.00316 µM): 17.2%
viability, T/C (second compound 0.0949 µM, first compound 0.01 µM): 17.9%
viability, T/C [25]: 15.9%
viability, T/C [26]: 13.1%
viability, T/C [27]: 13.3%
viability, T/C [28]: 12.9%
viability, T/C (second compound 0.3 µM, first compound 0.00316 µM): 14.2%
viability, T/C (second compound 0.3 µM, first compound 0.01 µM): 17.2%
viability, T/C [31]: 14.3%
viability, T/C [32]: 12.4%
viability, T/C [33]: 12.5%
viability, T/C [34]: 11.4%
